The text below walks through data of patent publication US6387900B1, “3(5)-ureido-pyrazole derivatives process for their preparation and their use as antitumor agents” (Pharmacia & Upjohn S.p.A., priority 1999, dated 2002).

In the case of `O=C(Nc1ccccc1)Nc1cc(C2CC2)n[nH]1` [Example 1, N-(3-cyclopropyl-1H-pyrazol-5-yl)-N′-phenylurea], the melting point lay in the range of 162 to 164 °C. To `O=C(NCc1ccc(Cl)cc1Cl)Nc1cc(C2CC2)n[nH]1` [Example 2, N-(3-cyclopropyl-1H-pyrazol-5-yl)-N′-(2,4-dichlorobenzyl)urea] belongs 177 to 179 °C.
